System: HUVEC/MSC spheroids viability
Experiment: Human HUVEC/MSC cell line growth inhibition [KRAS2];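 on viability, T/C: percent of DMSO vehicle control luminescence so 100% = untreated viability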
Conditions: for IC50: curve of first compound; for viability, T/C: stronger effect = lower value
How it was run: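 Stroma-only multicellular spheroids, formed from HUVEC and human MSCs at passages </=5, received RAS-pathway inhibitors with or without a second targeted drug. Dosing followed half-log dilutions from clinically achievable levels.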

[1] = second compound 0.0316 µM, first compound 0.0316 µM
[2] = second compound 0.0316 µM, first compound 0.1 µM
[3] = second compound 0.0316 µM, first compound 0.316 µM
[4] = second compound 0.0316 µM, first compound 1 µM
[5] = second compound 0.0316 µM, first compound 3.16 µM
[6] = second compound 0.0316 µM, first compound 10 µM
[7] = second compound 0.1 µM, first compound 0.0316 µM
[8] = second compound 0.1 µM, first compound 0.1 µM
[9] = second compound 0.1 µM, first compound 0.316 µM
[10] = second compound 0.1 µM, first compound 1 µM
[11] = second compound 0.1 µM, first compound 3.16 µM
[12] = second compound 0.1 µM, first compound 10 µM
[13] = second compound 0.316 µM, first compound 0.0316 µM
[14] = second compound 0.316 µM, first compound 0.1 µM
[15] = second compound 0.316 µM, first compound 0.316 µM
[16] = second compound 0.316 µM, first compound 1 µM
[17] = second compound 0.316 µM, first compound 3.16 µM
[18] = second compound 0.316 µM, first compound 10 µM
[19] = second compound 1 µM, first compound 0.0316 µM
[20] = second compound 1 µM, first compound 0.1 µM
[21] = second compound 1 µM, first compound 0.316 µM
[22] = second compound 1 µM, first compound 1 µM
[23] = second compound 1 µM, first compound 3.16 µM
[24] = second compound 1 µM, first compound 10 µM
[25] = second compound 3.16 µM, first compound 0.0316 µM
[26] = second compound 3.16 µM, first compound 0.1 µM
[27] = second compound 3.16 µM, first compound 0.316 µM
[28] = second compound 3.16 µM, first compound 1 µM
[29] = second compound 3.16 µM, first compound 3.16 µM
[30] = second compound 3.16 µM, first compound 10 µM
[31] = second compound 10 µM, first compound 0.0316 µM
[32] = second compound 10 µM, first compound 0.1 µM
[33] = second compound 10 µM, first compound 0.316 µM
[34] = second compound 10 µM, first compound 1 µM
[35] = second compound 10 µM, first compound 3.16 µM
[36] = second compound 10 µM, first compound 10 µM

In the case of `CC(=O)Nc1cccc(-n2c(=O)n(C3CC3)c(=O)c3c(Nc4ccc(I)cc4F)n(C)c(=O)c(C)c32)c1` + CC1OCC2(CCN(c3cnc(Sc4ccnc(N)c4Cl)c(N)n3)CC2)C1N, the IC50 (second compound 0.0316 µM) is reported as 18.1 nM, the IC50 (second compound 0.1 µM) is reported as 15.9 nM and the IC50 (second compound 0.316 µM) is reported as 16.2 nM. For the same molecule, the IC50 (second compound 1 µM) was 5.18 nM, the IC50 (second compound 3.16 µM) was 1.27 nM and the IC50 (second compound 10 µM) was less than 0.0949 nM. The viability, T/C (second compound 0.0316 µM, first compound 94.9 pM) was 110%, the viability, T/C (second compound 0.0316 µM, first compound 0.0003 µM) was 142% and the viability, T/C (second compound 0.0316 µM, first compound 0.000949 µM) was 113%. It also gave a viability, T/C (second compound 0.0316 µM, first compound 0.003 µM) of 118%, a viability, T/C (second compound 0.0316 µM, first compound 0.00949 µM) of 82.6% and a viability, T/C (second compound 0.0316 µM, first compound 0.03 µM) of 24.4%. It also gave a viability, T/C (second compound 0.1 µM, first compound 94.9 pM) of 118%, a viability, T/C (second compound 0.1 µM, first compound 0.0003 µM) of 106% and a viability, T/C (second compound 0.1 µM, first compound 0.000949 µM) of 104%. The viability, T/C (second compound 0.1 µM, first compound 0.003 µM) was 89.2%, the viability, T/C (second compound 0.1 µM, first compound 0.00949 µM) was 77.5% and the viability, T/C (second compound 0.1 µM, first compound 0.03 µM) was 21.9%. The viability, T/C (second compound 0.316 µM, first compound 94.9 pM) was 92.7%, the viability, T/C (second compound 0.316 µM, first compound 0.0003 µM) was 95.2% and the viability, T/C (second compound 0.316 µM, first compound 0.000949 µM) was 87.9%. For the same molecule, the viability, T/C (second compound 0.316 µM, first compound 0.003 µM) was 81.8%, the viability, T/C (second compound 0.316 µM, first compound 0.00949 µM) was 74.5% and the viability, T/C (second compound 0.316 µM, first compound 0.03 µM) was 24.3%. The viability, T/C (second compound 1 µM, first compound 94.9 pM) was 85.6%, the viability, T/C (second compound 1 µM, first compound 0.0003 µM) was 75.1% and the viability, T/C (second compound 1 µM, first compound 0.000949 µM) was 69.1%. The viability, T/C (second compound 1 µM, first compound 0.003 µM) was 55.7%, the viability, T/C (second compound 1 µM, first compound 0.00949 µM) was 46% and the viability, T/C (second compound 1 µM, first compound 0.03 µM) was 10.9%. It also gave a viability, T/C (second compound 3.16 µM, first compound 94.9 pM) of 71.2%, a viability, T/C (second compound 3.16 µM, first compound 0.0003 µM) of 69.5% and a viability, T/C (second compound 3.16 µM, first compound 0.000949 µM) of 49.7%. It also gave a viability, T/C (second compound 3.16 µM, first compound 0.003 µM) of 39.9%, a viability, T/C (second compound 3.16 µM, first compound 0.00949 µM) of 22.7% and a viability, T/C (second compound 3.16 µM, first compound 0.03 µM) of 3.47%. For the same molecule, the viability, T/C (second compound 10 µM, first compound 94.9 pM) was 48.7%, the viability, T/C (second compound 10 µM, first compound 0.0003 µM) was 39% and the viability, T/C (second compound 10 µM, first compound 0.000949 µM) was 33.3%. It also gave a viability, T/C (second compound 10 µM, first compound 0.003 µM) of 12.5%, a viability, T/C (second compound 10 µM, first compound 0.00949 µM) of 5.14% and a viability, T/C (second compound 10 µM, first compound 0.03 µM) of 0.77%.

For `COC(=O)c1ccc2c(C(=Nc3ccc(N(C)C(=O)CN4CCN(C)CC4)cc3)c3ccccc3)c(O)[nH]c2c1` + CC1OCC2(CCN(c3cnc(Sc4ccnc(N)c4Cl)c(N)n3)CC2)C1N, the IC50 (second compound 0.0316 µM) was 1550 nM, the IC50 (second compound 0.1 µM) was 1180 nM and the IC50 (second compound 0.316 µM) was 620 nM. The IC50 (second compound 1 µM) was 623 nM, the IC50 (second compound 3.16 µM) was 528 nM and the IC50 (second compound 10 µM) was 353 nM. The viability, T/C [1] was 112%, the viability, T/C [2] was 111% and the viability, T/C [3] was 89.7%. For the same molecule, the viability, T/C [4] was 52.6%, the viability, T/C [5] was 38.8% and the viability, T/C [6] was 2.26%. The viability, T/C [7] was 94.1%, the viability, T/C [8] was 106% and the viability, T/C [9] was 77%. For the same molecule, the viability, T/C [10] was 47.8%, the viability, T/C [11] was 32% and the viability, T/C [12] was 0.33%. The viability, T/C [13] was 108%, the viability, T/C [14] was 82% and the viability, T/C [15] was 73.4%. The viability, T/C [16] was 34.9%, the viability, T/C [17] was 16.6% and the viability, T/C [18] was 1.89%. It also gave a viability, T/C [19] of 74.3%, a viability, T/C [20] of 72.8% and a viability, T/C [21] of 74.2%. The viability, T/C [22] was 33.4%, the viability, T/C [23] was 0.59% and the viability, T/C [24] was 0.29%. It also gave a viability, T/C [25] of 69.4%, a viability, T/C [26] of 73.3% and a viability, T/C [27] of 64.5%. The viability, T/C [28] was 30.9%, the viability, T/C [29] was 0.39% and the viability, T/C [30] was 0.29%. The viability, T/C [31] was 63.5%, the viability, T/C [32] was 61.1% and the viability, T/C [33] was 53.8%. It also gave a viability, T/C [34] of 14.7%, a viability, T/C [35] of 0.37% and a viability, T/C [36] of 0.38%.

Molecule `O=C(c1cc(Cc2n[nH]c(=O)c3ccccc23)ccc1F)N1CCN(C(=O)C2CC2)CC1` + CC1OCC2(CCN(c3cnc(Sc4ccnc(N)c4Cl)c(N)n3)CC2)C1N has an IC50 (second compound 0.0316 µM) greater than 10000 nM, an IC50 (second compound 0.1 µM) greater than 10000 nM and an IC50 (second compound 0.316 µM) greater than 10000 nM. The IC50 (second compound 1 µM) was greater than 10000 nM, the IC50 (second compound 3.16 µM) was greater than 10000 nM and the IC50 (second compound 10 µM) was greater than 10000 nM. It also gave a viability, T/C [1] of 102%, a viability, T/C [2] of 117% and a viability, T/C [3] of 100%. The viability, T/C [4] was 98.7%, the viability, T/C [5] was 101% and the viability, T/C [6] was 132%. The viability, T/C [7] was 101%, the viability, T/C [8] was 101% and the viability, T/C [9] was 104%. The viability, T/C [10] was 108%, the viability, T/C [11] was 109% and the viability, T/C [12] was 94.6%. For the same molecule, the viability, T/C [13] was 102%, the viability, T/C [14] was 119% and the viability, T/C [15] was 99%. The viability, T/C [16] was 101%, the viability, T/C [17] was 88% and the viability, T/C [18] was 89.4%. For the same molecule, the viability, T/C [19] was 85.4%, the viability, T/C [20] was 110% and the viability, T/C [21] was 95.6%. The viability, T/C [22] was 87.2%, the viability, T/C [23] was 86.6% and the viability, T/C [24] was 88.4%. For the same molecule, the viability, T/C [25] was 74.2%, the viability, T/C [26] was 96.3% and the viability, T/C [27] was 91.8%. The viability, T/C [28] was 89.8%, the viability, T/C [29] was 98.1% and the viability, T/C [30] was 90.8%. It also gave a viability, T/C [31] of 72.5%, a viability, T/C [32] of 79.7% and a viability, T/C [33] of 79.9%. For the same molecule, the viability, T/C [34] was 67.6%, the viability, T/C [35] was 81.5% and the viability, T/C [36] was 76.4%.
